Data set [1] deals with mouse model of chronic heart failure. In words: Mouse chronic heart failure after LAD ligation, iodide in drinking water, echocardiography. The data set is classed as in vivo. The settings on record: drinking water 0.77 mg/kg/day iodide from LAD ligation for 12 weeks vs normal drinking water. On the procedure:
In order to examine the effect of drinking water containing NaI on chronic heart failure following heart attack in a mouse model, two groups of mice were provided with drinking water lacking iodide or drinking water containing 0.77 mg/kg/day iodide starting immediately following open chest ligation of the left descending coronary artery (LAD ligation) to initiate ischemia, and continuing until the end of the study, which lasted 12 weeks. Prior to the LAD ligation and at 1 week, 2 weeks, 4 weeks, 8 weeks, and 12 weeks following the LAD ligation, mice were examined by echocardiography to determine their left ventricle ejection fraction and their left ventricle fractional shortening.

Data set [2] deals with rat model of acute myocardial infarction (AMI). In words: Rat acute myocardial infarction (30 min LAD occlusion), plasma cTpnI and infarct size. The settings on record: 1 mg/kg i.v. bolus, vs placebo. Type of data set: in vivo. The protocol: Male CD®, IGS Rats (300-450 g) were subjected to 30 minutes of LAD occlusion followed by 24-30 hrs of reperfusion. 200-400 uL of blood was drawn at 4 and 24¬30 hrs post-reperfusion for plasma cTpnI measurements by EIA. After the 24-30 hr blood draw, the LAD was re-occluded, and the heart was excised following i.v. administration of Evans Blue. The hearts were frozen overnight, sectioned, and stained with triphenyl tetrazolium chloride for subsequent blinded infarct analysis.
Rats were anesthetized with a ketamine/xylazine mixture (100 mg/kg and 10 mg/kg, respectively) and maintained under 2-3% isoflurane in 100% medical oxygen after intubation with a 16 gauge angiocatheter sheath (Terumo® Surflo i.v. catheter, 16G×2″, VWR Cat. #TESR-OX1651CA). Animals were ventilated using a Harvard Apparatus Model 683 small animal ventilator equipped with a 5 cc cylinder at a tidal volume of 1.5-2.0 mL/stroke and a respiratory rate of 105 strokes/min. With the rat lying on its right side, animal fur was removed from the surgical area with clippers and then cleaned with alcohol pads. The heart beat was visualized through the chest wall and a dorsoventral incision in the left chest wall was made directly over the beating heart. The underlying fascia was dissected away to reveal the ribs and intercostal muscles. […]

In data set [3] the test system is mouse model of heart attack. In words: Transthoracic echocardiography of left ventricle after myocardial ischemia and reperfusion. The data set is classed as in vivo. The settings on record: FIG. 4; single intravenous administration two days prior to ligation-induced ischemia. On the procedure:
For each of the sets of bars for Ejection Fraction and Fractional Shortening, the bars from left to right correspond to the bars from top to bottom shown in the legend.
In vivo transthoracic echocardiography of the left ventricle (LV) using a 30-MHz RMV scanhead interfaced with a Vevo 770 (Visualsonics) was performed, and two-dimensional echocardiography images were obtained. LV end-diastolic diameter (EDD) and LV end-systolic diameter (ESD) were measured at a day before for a baseline and one and 4 weeks after myocardial ischemia and reperfusion. LV percent fractional shortening (FS) and LV ejection fraction (EF) were calculated.

Data set [4] has as its system mouse model of heart attack. Kind of data set: Mouse LAD ligation after two days of drinking water containing NaI, infarct size. The data set is classed as in vivo. On the procedure: In order to examine the effect of pre-treatment with drinking water containing NaI on myocardial infarct size in a mouse model of heart attack, three groups of mice were provided with drinking water containing various concentrations of iodide to achieve dosages of 0.07 mg/kg/day (normal drinking water) for the first group; 0.77 mg/kg/day for the second group; or 7.07 mg/kg/day for the third group, for two days immediately prior to open chest ligation of the left descending coronary artery (LAD ligation) to initiate ischemia. A fourth group of mice was provided with normal drinking water for the two days prior to the initiation of ischemia, but at 55 minutes post initiation of ischemia, either vehicle (saline) or test agent (NaI) was injected into the femoral vein of each of these mice. […] After two hours of reperfusion, infarct size was measured by morphometry (FIG. 1). To be certain that all animals in the study were treated in a similar way, the area at risk (AAR) as a proportion of the left ventricle was determined (FIG. 8). Area at risk (AAR) and infarct size (Inf) were measured using the specific dyes TTC and Evans blue. Processed images were generated in an unbiased way by setting constant thresholds and allowing Photoshop® to generate the images that were quantitated to generate the data presented in FIG. 8.

In data set [5] the test system is mouse model of heart attack. In words: Mouse LAD ligation ischemia/reperfusion, NaI i.v. before reperfusion, infarct size by morphometry. Type of data set: in vivo. The protocol:
In order to examine the effect of NaI on myocardial infarct size in a mouse model of heart attack, open chest ligation of the left descending coronary artery (LAD ligation) was performed in mice. At 55 minutes post initiation of ischemia, either vehicle (saline) or test agent (NaI) was injected into the femoral vein of each mouse. The heart muscle was reperfused by releasing the ligature at 60 minutes post initiation of ischemia. After 2 hours of reperfusion, infarct size was measured by morphometry (FIG. 1). Five groups of mice were utilized in this study, including a saline vehicle group (n=3) and […] test groups that received 0.25 mg/kg (n=4), 0.5 mg/kg (n=5), 1 mg/kg (n=5), or 2 mg/kg (n=6) of NaI. To be certain that all animals in the study were treated in a similar way, the area at risk (AAR) as a proportion of the left ventricle was determined (FIG. 1). Area at risk (AAR) and infarct size (Inf) were measured using the specific dyes TTC and Evans blue. Processed images were generated in an unbiased way by setting constant thresholds and allowing Photoshop® to generate the images that were quantitated to generate the data presented in FIG. 1.
An additional test was performed under the same conditions but using an expanded range of concentration of NaI.

Data set [6] has as its system mouse model of heart attack. Kind of data set: Mouse LAD ligation, NaI i.v. pretreatment before ischemia, infarct size by morphometry. Type of data set: in vivo. On the procedure: To determine whether pretreatment with NaI prior to heart attack improves heart attack outcome, open chest ligation experiments were performed in mice where either vehicle (saline) or test agent (NaI) was injected into the femoral vein of each mouse either 5 minutes or 48 hours before initiation of ischemia. Open chest ligation of the left descending coronary artery (LAD ligation) was then performed, and the heart muscle was reperfused by releasing the ligature at 60 minutes post initiation of ischemia. After 2 hours of reperfusion, infarct size was measured by morphometry as described above (FIG. 3). Three groups of mice were utilized in this study, including a saline vehicle group (n=1) and two test groups that received 1 mg/kg NaI 5 minutes before LAD ligation (n=4) or 1 mg/kg NaI 48 hours before LAD ligation (n=1).

The subject of data set [7] is peripheral blood mononuclear cells (PBMC). In words: Mixed lymphocyte culture, tritiated thymidine incorporation. The data set is classed as cell-based. The conditions noted are these: 5 days culture, 18 hours pulse. On the procedure:
In particular embodiments, immunosuppression induced by halogen or chalcogenide compounds is assessed by measuring T cell proliferation, e.g., in response to activated antigen presenting cells. Essentially a mixed lymphocyte reaction, this assay exploits that fact that T cell exposure to presented antigens result in T cell activation and proliferation, as well as supportive increases in DNA synthesis. […] Irradiation results in the presentation of numerous antigens to antigen presenting cells, thus the irradiated cells serve as potent activators of T cells. By mixing the irradiated cells with the non-irradiated cells, strong T cell proliferation will occur. This proliferation can be measured using any proliferation assay, as would be commonly known to the skilled artisan. In one embodiment, proliferation is assessed by measuring DNA synthesis. Mixed PBMC were cultured in the presence or absence of halogen or chalcogenide compounds for 5 days, and then pulsed with tritiated thymidine for 18 hours to label newly synthesized DNA. The degree of labeling is directly correlated with the degree of T cell activation, thus low levels of labeling correlate with immunosuppression.
PBMC were either irradiated with 3500 rads (Ax and Bx) or not (A and B). […] Cells were lysed, the lysate filtered to trap the DNA on the filter and the filters counted in a scintillation counter. […]
A general note: Uptake of a labelled nucleoside into DNA is a usual measure of proliferation.

Data set [8] in a line: Oxidation of selenide in water or glutathione solution (visual darkening). Type of data set: physicochemical. The settings on record: 50 mM selenide in 150 mM GSH vs in water, 8 minutes immediately following preparation. The protocol:
The photographs show samples of 50 mM selenide in either water (FIG. 5A) or 150 mM GSH (FIG. 5B) over the eight minutes immediately following preparation.

Another data set deals with hypoxic injuries. The settings on record: mice and rats; PCT Publication No. WO2005/041655; cited from earlier work.

Consider `[I-].[Na+]` [NaI, sodium iodide], for which, in [1], the “left ventricle ejection fraction” value is “statistically significant increases”. Also, in [1], the “left ventricle fractional shortening” value is given as “statistically significant increases”. Further, the “plasma troponin levels (cTpnI)” value in data set [2] (4 and 24 hr) is reported as “consistently lower”. Further, the infarct size entry in data set [2] (24 hrs) is listed as “smaller”. Moreover, the “protective effect by echocardiography (LV ejection fraction, fractional shortening)” value in data set [3] is “protective effect of NAI was confirmed by echocardiography”. Further, the “infarct size (morphometry)” value is listed as “statistically significant decreases in infarct size” in [4] (drinking water 0.77 or 7.07 mg/kg/day for two days prior to LAD ligation vs normal water (0.07 mg/kg/day)); “statistically significant decreases in infarct size” in data set [5] (NaI 0.25, 0.5, 1 or 2 mg/kg into femoral vein at 55 minutes of ischemia, 2 hours of reperfusion, vs saline group (FIG. 1)); “statistically significant decreases in infarct size” in data set [5] (additional test, same conditions, expanded range of concentration of NaI, vs saline group (FIG. 2)); “statistically significant decreases in infarct size” in data set [6] (1 mg/kg NaI i.v. 5 minutes or 48 hours before LAD ligation, vs saline group (FIG. 3)). Also, in [4] (drinking water pre-treatment for two days), the “decrease in infarct size compared with iodide i.v. at the time of reperfusion” value is on record as “somewhat less or comparable”. In addition, the “reduction in infarct size in comparison to vehicle alone” value in data set [5] (each dosage tested (0.25-2 mg/kg NaI i.v. at 55 minutes of ischemia)) and in [6] (pre-treatment 1 mg/kg NaI 5 minutes or 48 hours before LAD ligation) was “approximately 70%” each time. Further, the “tritiated thymidine labeling (DNA synthesis)” value in data set [7] (highest concentration) is “reduced the amount of labeling”.
Regarding selenide, the “oxidation of selenide (dark oxidized forms)” value in data set [8] is listed as “reduced levels of oxidation at each time point”. Also, the “tritiated thymidine labeling (DNA synthesis)” value in data set [7] (all concentrations) was “reduced the labeling to control levels”.
Take sulfide: in the data set on hypoxic injuries, the “metabolism and protection from hypoxic injuries” value is “can reduce metabolism and protect mice and rats from hypoxic injuries”.

(Values after patent US12016880B2, “Halogen treatment of heart attack and ischemic injury” (Fred Hutchinson Cancer Center, priority 2014, dated 2024).)
